Test results: patent EP1067137B1, “Granules of alpha-L-aspartyl-L-phenylalnine methyl ester” (Ajinomoto Co., Inc., priority 1991, dated 1992)
Peptide text beside a SMILES is read from it.

Tests used:
[1] = Dissolution time of α-APM granules in water; type: physicochemical; settings: 8 g of sample in 2 liters of water, 20 °C, 350 rpm
Experimental: The dissolution time of the α-APM granules thus obtained was measured by the method mentioned below, and the results obtained are shown in Table 1.
First, 2 liters of water were previously put in a 3-liter beaker and stirred with a magnetic stirrer.
The size of the stirrer to be used for the stirring was 70 mm x 15 mm φ and the rotation number was set to be 350 rpm with Whatman Dataplate 440. The temperature of the water was kept to be 20 ° C by the use of a hot plate. 8 g of a sample was put into the water under the determined condition, whereupon the time needed for completely dissolving it in the water was measured to be the dissolution time of the sample.

[2] = relative to sucrose (cane sugar); cited from earlier work
[3] = Original Powder before Granulation
[4] = granules, Grain Size 100 to 150 µm
[5] = granules, Grain Size 150 to 180 µm
[6] = granules, Grain Size 180 to 300 µm
[7] = granules, Grain Size 300 to 500 µm
[8] = granules, Grain Size 500 to 850 µm
[9] = granules, Grain Size 850 to 1400 µm

| Dissolution Time [1, 3] [min] | Dissolution Time [1, 4] [min] | Dissolution Time [1, 5] [min] | Dissolution Time [1, 6] [min] | Dissolution Time [1, 7] [min] | Dissolution Time [1, 8] [min] | Dissolution Time [1, 9] [min] | Structure (SMILES) | sweetness [2] |
| --- | --- | --- | --- | --- | --- | --- | --- | --- |
| 15 | 10 | 7 | 9 | 17 | 24 | 35 | COC(=O)[C@H](Cc1ccccc1)NC(=O)[C@@H](N)CC(=O)O [sample B, α-L-aspartyl-L-phenylalanine methyl ester] (H-Asp-Phe-OMe) |  |
|  |  |  |  |  |  |  | COC(=O)[C@H](Cc1ccccc1)NC(=O)[C@@H](N)CC(=O)O [α-APM, α-L-aspartyl-L-phenylalanine methyl ester] (H-Asp-Phe-OMe) | about 200 times that of sucrose |
| 30 | 15 | 8 | 11 | 18 | 25 | 38 | COC(=O)[C@H](Cc1ccccc1)NC(=O)[C@@H](N)CC(=O)O [sample A, α-L-aspartyl-L-phenylalanine methyl ester] (H-Asp-Phe-OMe) |  |
| 60 | 36 | 20 | 12 | 19 | 27 | 38 | COC(=O)[C@H](Cc1ccccc1)NC(=O)[C@@H](N)CC(=O)O [sample C, α-L-aspartyl-L-phenylalanine methyl ester] (H-Asp-Phe-OMe) |  |
